Measurements published in PubChem BioAssay (NCI).
“And” between values parts separate entries of the source, which are not always exact repeats. Equal values may be shown once.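 Where inhibition never reached the appropriate level, the endpoint shown equals the highest concentration tested. Otherwise, values were interpolated linearly from a five-concentration, 48-hour dose response in 96-well plates. At the GI50, growth is halved. TGI denotes the concentration required for complete inhibition of growth.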

Columns and labels:
Test in all cases: NCI-60 cell line screen, 48 h
ACHN renal = system: ACHN renal
SK-MEL-28 melanoma = system: SK-MEL-28 melanoma
A498 renal = system: A498 renal
RXF 393 renal = system: RXF 393 renal
M14 melanoma = system: M14 melanoma
CCRF-CEM leukemia = system: CCRF-CEM leukemia
OVCAR-3 ovarian = system: OVCAR-3 ovarian
PC-3 prostate = system: PC-3 prostate
NCI-H23 lung = system: NCI-H23 lung
NCI-H226 lung = system: NCI-H226 lung
T-47D breast = system: T-47D breast
786-0 renal = system: 786-0 renal
SK-MEL-2 melanoma = system: SK-MEL-2 melanoma

SMILES	GI50 (ACHN renal)	TGI (ACHN renal) [µM]	GI50 (SK-MEL-28 melanoma)	TGI (SK-MEL-28 melanoma)	TGI (A498 renal)	TGI (RXF 393 renal)	GI50 (M14 melanoma)	TGI (M14 melanoma)	GI50 (CCRF-CEM leukemia)	TGI (CCRF-CEM leukemia)	GI50 (OVCAR-3 ovarian)	TGI (OVCAR-3 ovarian)	TGI (PC-3 prostate) [µM]	TGI (NCI-H23 lung)	GI50 (NCI-H226 lung)	TGI (NCI-H226 lung)	GI50 (T-47D breast)	TGI (T-47D breast)	TGI (786-0 renal) [µM]	TGI (SK-MEL-2 melanoma) [µM]
N#Cc1c(-c2ccccc2)cc(-c2ccccc2)n(C2OC(CO)C(O)C(O)C2O)c1=S (stereo not drawn)	30.7 µM and 66.6 µM	> 100	18.8 µM and 53.5 µM	47.4 µM and > 100 µM	52.5 µM	> 100 µM	25.1 µM and > 100 µM	62.6 µM and > 100 µM	12.5 µM and 29.2 µM	57.4 µM and > 100 µM	18 µM and 73 µM	34.3 µM and > 100 µM	> 100	58.9 µM and 89.7 µM	22.3 µM and 69.8 µM	49.1 µM and > 100 µM	6.51 µM and 29.1 µM	34.5 µM and > 100 µM	> 100	
O=C(ON=C1c2ccccc2C(Br)C(Br)c2ccccc21)c1cc([N+](=O)[O-])cc([N+](=O)[O-])c1 (stereo not drawn)		45		34.6 µM	33.1 µM	36.6 µM		33.6 µM		3.65 µM		35.5 µM	> 73.5	40.1 µM		48.6 µM		76.7 µM	28.7	> 71
Clc1ccc(NCc2nnc(CCCCCCCCc3nnc(CNc4ccc(Cl)cc4)o3)o2)cc1		> 100			> 100 µM	> 100 µM		> 100 µM		> 100 µM		> 100 µM	> 100	> 100 µM				> 100 µM	> 100	> 100
COC(=O)C1(CCC(C)=O)CCCCCC1=O (stereo not drawn)		> 100		> 100 µM	> 100 µM	> 100 µM		> 100 µM				> 100 µM	> 100	> 100 µM		> 100 µM		> 100 µM	> 100	> 100
CCOc1cc(NC(C)=O)ccc1C(=O)NN1C(=O)C(Cl)C1c1ccccc1 (stereo not drawn)		29.7		36.4 µM	31.7 µM	33.5 µM		27 µM		38.6 µM		34.2 µM	27.8	32.3 µM		46.3 µM		35.4 µM	28.1	29.9
O=S1(=O)N=C(SCc2ccccc2)N(c2ccccc2)c2ccncc21		> 100		> 100 µM	59.9 µM	> 100 µM		> 100 µM		> 100 µM		> 100 µM	> 100	> 100 µM		> 100 µM		> 100 µM	> 100	> 100
NC(N)=N/N=C/c1c(-c2ccc(Cl)cc2)nc2sccn12		2.82		3.44 µM	13.2 µM	2.95 µM		3.17 µM		4.23 µM		3.6 µM	3.33	19.9 µM		7.49 µM		3.22 µM	2.99	4.31
CC(C)Cn1cnc2c(NCC(C)O)nc3ccccc3c21 (stereo not drawn)		> 100		> 100 µM	> 100 µM	> 100 µM		> 100 µM		> 100 µM		> 100 µM	> 100	> 100 µM		> 100 µM		> 100 µM	> 100	> 100
CNC1=C(C)C(=O)C(=O)C([C@H](C)CCC=C(C)C)=C1O		39.4		> 100 µM	62.3 µM	> 100 µM		> 100 µM		> 29.4 µM		> 100 µM	98.7	> 100 µM		> 72.9 µM		86.3 µM	> 95.3	81.9
CCCCCCCCCCCCCCCCCCNc1ccn(C2OC(COP(=O)(O)OCC3OC(n4cc(F)c(=O)[nH]c4=O)CC3O)C(O)C2O)c(=O)n1 (stereo not drawn)		> 100		> 100 µM	> 100 µM	35.6 µM		> 78.1 µM		> 49.7 µM		> 100 µM	19.7	17.9 µM		> 100 µM		> 100 µM	> 100	> 100
C=CCN1C(=O)/C(=C/c2ccc(OC)cc2)N=C1SC/C=C/C		> 100		> 100 µM	> 100 µM	87 µM		> 100 µM		> 100 µM		> 100 µM	> 100	> 100 µM		> 100 µM		94.2 µM	> 100	> 100
Cc1cc2ccccc2n2c1nc1ccccc12		> 100		> 100 µM	76.7 µM	> 100 µM		> 100 µM		> 100 µM		> 100 µM	> 100	> 100 µM		> 100 µM		> 100 µM	> 100	
OC1(c2cccs2)c2cccc(Cl)c2C(O)(c2cccs2)c2c(Cl)cccc21 (stereo not drawn)		> 100		> 100 µM	> 100 µM	> 100 µM		> 100 µM		> 100 µM		> 100 µM	> 100	> 100 µM		> 100 µM		> 100 µM	> 100	> 100
CSc1nc(C#N)c(/N=C\N(C)C)n1C		> 100		> 100 µM	> 100 µM	> 100 µM		> 100 µM		> 100 µM		> 100 µM	> 100	> 100 µM		> 100 µM		> 100 µM	> 100	> 100
O=C1c2cc(Cl)ccc2-n2cnnc2C2CSCN12 (stereo not drawn)		> 100		> 100 µM	> 100 µM	> 100 µM		> 100 µM		> 100 µM		> 100 µM	> 100			> 100 µM		> 100 µM	> 100	> 100
COc1ccc(-c2c(C#N)c(N)n(C3OCC(OC(C)=O)C(OC(C)=O)C3OC(C)=O)c(=S)c2C#N)cc1 (stereo not drawn)		> 100		> 100 µM	70.1 µM and 84.2 µM	> 100 µM and 98.2 µM		> 100 µM		77.8 µM and 98.3 µM		> 100 µM	> 100	> 100 µM		> 100 µM		81.6 µM and > 100 µM	> 100	> 100
COC1(OC)c2no[n+]([O-])c2CCC1O (stereo not drawn)		> 100		> 100 µM	> 100 µM	> 100 µM		> 100 µM		> 100 µM		> 100 µM	> 100	> 100 µM		> 100 µM		> 100 µM	> 100	> 100

SMILES	GI50 (ACHN renal)	TGI (ACHN renal) [µM]	GI50 (SK-MEL-28 melanoma)	TGI (SK-MEL-28 melanoma)	TGI (A498 renal)	TGI (RXF 393 renal)	GI50 (M14 melanoma)	TGI (M14 melanoma)	GI50 (CCRF-CEM leukemia)	TGI (CCRF-CEM leukemia)	GI50 (OVCAR-3 ovarian)	TGI (OVCAR-3 ovarian)	TGI (PC-3 prostate) [µM]	TGI (NCI-H23 lung)	GI50 (NCI-H226 lung)	TGI (NCI-H226 lung)	GI50 (T-47D breast)	TGI (T-47D breast)	TGI (786-0 renal) [µM]	TGI (SK-MEL-2 melanoma) [µM]
CCCCCCCCCCCCCCCCCCNC(=O)C(N)Cc1ccc(OCc2ccccc2)cn1 (stereo not drawn)		56.4		50.8 µM	35.4 µM	42.4 µM		33.3 µM		78.9 µM		49.6 µM	27.7	31.7 µM				50.7 µM	41.6	33.3
COC(=O)c1ccc(C)cc1CC1Cc2cc(C)ccc2C1=O (stereo not drawn)		> 100		> 100 µM	> 100 µM			> 100 µM		> 100 µM		> 100 µM	> 100	> 100 µM		> 100 µM		> 100 µM	> 100	> 100
O=C1/C(=C/c2ccccc2O)N=C(c2ccccc2)N1C1Nc2cc3c(cc2S1)NC(N1C(=O)/C(=C/c2ccccc2O)N=C1c1ccccc1)S3 (stereo not drawn)		> 100		> 100 µM	> 100 µM	70 µM		> 100 µM		> 100 µM		> 100 µM	> 100	> 100 µM		> 100 µM		> 100 µM	> 100	> 100
Cc1csc2[n+]1C(=O)/C(=C\c1ccc([N+](=O)[O-])cc1)S2		65.7		> 100 µM	45.5 µM	82.6 µM		> 100 µM		> 100 µM		33.1 µM	75.5	48.6 µM		26.9 µM		65.5 µM	71.8	63.3
C=CCN1C(=O)C=C(c2ccccc2)n2ncc3cccc1c32		> 100		> 100 µM	> 100 µM			> 100 µM		> 100 µM		> 100 µM	> 100	> 100 µM		> 100 µM		> 100 µM	> 100	> 100
COc1ccc(Nc2nnc(-c3nsc4ccccc34)s2)cc1		> 100		> 100 µM	15.8 µM	> 78.9 µM		> 100 µM		> 100 µM		> 100 µM	> 100	> 100 µM		> 100 µM		> 100 µM	9.77	> 100
COC(=O)[C@@H]1CN(C(C)=O)C(=O)N1		> 100		> 100 µM	> 100 µM	> 100 µM		> 100 µM		> 100 µM		> 100 µM	> 100	> 100 µM		> 100 µM		> 100 µM	> 100	> 100
[N-]=[N+]=Nc1ccccc1C(=O)N1C(=O)c2ccccc2C(=O)N(C(=O)c2ccccc2N=[N+]=[N-])c2ccccc21		> 100		> 100 µM	> 100 µM	76.6 µM		> 100 µM		84.6 µM		> 100 µM	> 100	> 100 µM		> 100 µM		> 100 µM	> 100	> 100
CCOC(=O)c1cccn1S(=O)(=O)c1cc(Cl)ccc1NC(=O)CC		> 100		> 100 µM	> 100 µM	> 100 µM				> 100 µM		> 100 µM	> 100					> 100 µM	> 100	> 100
CNc1ncnc2c1ncn2C1C=CC(COS(N)(=O)=O)C1 (stereo not drawn)		> 100		> 100 µM	> 100 µM	> 100 µM		> 100 µM		> 100 µM		> 100 µM	> 100	> 100 µM				> 100 µM	> 100	> 100
Cn1c2ccccc2c2c(-c3ccccc3)cc3c(c21)C(=O)C=CC3=O		3.04		4.34 µM	6.18 µM	3.83 µM		3.4 µM		0.538 µM		4.03 µM	> 6.39	3.81 µM		5.04 µM		4.9 µM	2.99	> 7.25
O=C1/C(=C\c2ccc(O)cc2)CCC/C1=C/c1ccc(Cl)c(Cl)c1		12.1		13.9 µM	14.3 µM	5.8 µM		5.44 µM		1.2 µM		9.73 µM	12.7	10.1 µM		15.5 µM		33.3 µM	6.05	36.9
CC(=O)NC1C(OCc2ccccc2)OC(CO)C(O)C1OC(C)C(=O)NC(C(=O)N[C@@H](CCC(=O)NCCNCCNc1c2ccccc2nc2cccc([N+](=O)[O-])c12)C(N)=O)C(C)C (stereo partly drawn)		73.5		> 100 µM	> 100 µM			32.2 µM		> 100 µM		> 100 µM	> 100	> 100 µM		> 100 µM		> 100 µM	76.9	46.7
O=C(O)c1nc2cc(C(F)(F)F)ccc2nc1Nc1ccc(F)cc1		35.2		> 100 µM	47.7 µM	36 µM		82.4 µM		> 100 µM		49.8 µM	31.6	38.2 µM		> 100 µM		> 100 µM	66	26.5
C=C(C)C1=CCC[C@]2(C1)N=C(OC)[C@@H](C(C)C)N=C2OC		> 100		> 100 µM	> 100 µM			> 100 µM		> 100 µM		> 100 µM	> 100	> 100 µM		> 100 µM		> 100 µM	> 100	> 100
O=C(NC1=NCC(CN2CCN(c3ccccc3)CC2)O1)Nc1ccccc1 (stereo not drawn)		> 100		> 100 µM	> 100 µM	> 100 µM		> 100 µM		> 100 µM			> 100	> 100 µM		> 100 µM		> 100 µM	> 100	> 100
Cc1cc2c(cc1-c1cc3c(cc1C)C(C(C)C)=C(O)C(=O)/C3=C\Nc1c3ccccc3nc3ccccc13)/C(=C/Nc1c3ccccc3nc3ccccc13)C(=O)C(O)=C2C(C)C		5.91		19.5 µM	21.9 µM	20.1 µM		12.6 µM		25.5 µM		14.5 µM	12.9	15 µM		5.53 µM		26.8 µM	14.8	19.2
